From patent US9458212B2, “Nanoparticles containing a peptide, vectors containing said nanoparticles, and pharmaceutical uses of said nanoparticles and vectors” (CENTRE NATIONAL DE LA RECHERCHE SCIENTIFIQUE (C.N.R.S.), priority 2008, dated 2016)
Non-standard residues stand in square brackets, D forms with d. No end group written: not given here. pS = N[C@@H](COP(=O)(O)O)C(=O)O

Key:
[1] = test system: T cells present in the lymph nodes draining the site of administration; conditions: with adjuvant, BALB/c mice, Monneaux et al. 2003; cited from earlier work
mice = test: Intranasal administration of peptide P140 in mice; format: in vivo
Experimental: At present, the peptide P140 is administered by subcutaneous injection, which is not a comfortable mode of administration for the patient. Several other modes of administration have thus been tested. For instance, intranasal administration has been tested in mice but is not effective.

[2] = test system: T cells present in the lymph nodes draining the site of administration; test: Subcutaneous immunization of BALB/c mice; ex vivo proliferation and cytokine secretion of lymph node cells stimulated with peptide P140; conditions: s.c., in the presence of CFA
Experimental: Eur. J. Immunol. 33, 287-296].
Female BALB/c mice aged 7 weeks old (4 groups of two mice) are immunized subcutaneously in the flanks with different formulations. […] The mice having received peptide in its free form or in the form of nanoparticles all received the same quantity of peptide, namely 100 μg per mouse.
One week after the immunization, the mice are sacrificed and samples are taken from the lymph nodes of the flank and of the foreleg. The cells issuing from these lymph nodes are cultured ex vivo in a proportion of 5.10^5 cells per well in the presence of different peptide concentrations (0, 6, 20 and 60 μM) so as to study their proliferation and also the secretion of cytokines.
The Th cells are classified into sub-populations, Th1 or Th2, depending on the cytokines that they produce and the function that they perform. Cells of type Th-1 produce in particular interleukin-2 (IL-2) and interferon-γ (IFN-γ), whereas cells of type Th-2 secrete essentially IL-4, IL-5, IL-6, IL-10 and IL-13. The immunization conditions used here, that is to say the use of CFA, encourage the development of a response of type Th1. Therefore, only the secretion of IL-2 and IFN-γ was studied.

Substance: peptide P140: 21 amino acid peptide RIHMVYSKRSGKPRGYAFIEY, serine in position 10 phosphorylated (SEQ ID NO: 1) (RIHMVYSKR[pS]GKPRGYAFIEY; listed as Homo sapiens)
- T cell response after s.c. administration in the presence of adjuvant [1]: activation of the auxiliary T cells Th
- efficacy of intranasal administration (mice): not effective
- stimulation indices (proliferation) ([2]; 100 μg peptide per mouse, cells cultured with 0, 6, 20, 60 μM peptide): positive and dose-dependent
- cytokine secretion (IL-2, IFN-γ) [2]: dose-dependent responses
